# Experimental data as given in patent US20060258729A1, “Antibacterial pyrazole carboxylic acid hydrazides” (priority 2002, published 2006).
# pIC50: −log10 of the molar value. “Also recorded” adds a separate entry of the source.
# Tests used:
# [1] = system: Enterococcus faecalis strain 29212; test: Inhibition of bacterial growth (MIC), Efcl; assay type: cell-based; conditions: 16 to 18 hours, 37° C.; for MIC: read-out: Minimum Inhibitory Concentration for Bacterial Growth, Efcl
# Description: (§1) Each compound was assayed against a panel of a strain of Bacillus subtilis, of strains of antibiotic-resistant and sensitive Enterococcus and Staphylococcus species, and of a strain of the Gram-negative bacterium Escherichia coli. Compounds were dissolved in DMSO at 100× the desired highest concentration and added to one well of a 96-well microassay plate. Two-fold serial drug dilutions were made across the plate in DMSO to yield 11 concentrations (usually 80-0.078 μg/mL) plus an untreated control. Drugs were then transferred to fresh plates using 1.5 μL per well. Log phase cultures were diluted to yield a concentration of 1×10^5 colony forming units/mL in either LB or BHI medium and transferred to the plates containing drug for a final volume of 150 μL. Each well, including the DMSO controls, contained a final concentration of 1% DMSO. Plates were incubated with shaking at 37° C. for 16 to 18 hours. Cell growth was determined by measuring optical density (570 nm, 1 cm path length) in a microplate reader. MIC (minimum inhibitory concentration) is equivalent to the lowest concentration at which growth is not observed. The bacterial strains and MIC determinations have been well characterized and are described elsewhere (Tarantino et al., Antimicrob. Agents Chemother., 43: 1982-1987 (1999); Daly et al., Antimicrob. Agents Chemother., 44: 2217-2221 (2000)).
# E. coli pol IIIE = target: T1, E. coli pol IIIE (Escherichia coli, UniProt P10443); test: DNA polymerase assay, E. coli pol IIIE; assay type: biochemical; conditions: 80 μg/mL (190-260 μM) final concentration, all four dNTPs
# T1 construct: purchased Enzyco, Denver, Colo
# Description: (§2) Recombinant, purified pol IIIC and pol IIIE from Bacillus subtilis were obtained using known methods (Hammond et al., Gene 98: 29-36 (1991), regarding pol IIIC; Barnes et al., J. Bacteriol. 184, 3834-3838 (2002), regarding pol IIIE). Recombinant, purified pol IIIE from Escherichia coli was obtained from a commercial source (Enzyco, Denver, Colo.). The enzyme assays were performed in 96-well plate format using the same assay mix for all three enzymes. Each 25 μL assay contained 30 mM Tris, pH 7.5, 10 mM magnesium acetate, 4 mM dithiothreitol, 20% glycerol, with 10 μM dATP, dCTP, dGTP and dTTP (3H-labelled at 1.44 Ci/mmole) and 0.4 mg/mL activated calf thymus DNA as substrates. Dilutions of compounds were added to the plate in 1% DMSO (1 μL/well). Assays were initiated by the addition of 0.025 to 0.06 units of enzyme (1 unit is the amount required to incorporate 250 pmoles of [^3H] dTMP in a standard assay), incubated for 10 min at 30° C. and terminated by the addition of 200 μL of cold 10% trichloroacetic acid, 10 mM sodium pyrophosphate. Precipitated labeled DNA was collected on glass fiber filter plates that had been pre-wet with ice cold 1 M HCl, 100 mM sodium pyrophosphate. The plates were washed with the HCl solution followed by ice cold 90% ethanol and then dried and counted in a liquid scintillation counter. The calculated IC50 is the concentration needed to inhibit 50% of the DNA polymerase activity in the presence of all four dNTP substrates. In addition, percent inhibition values are calculated as the percent reduction in the activity of a DMSO (diluent) control.
# B. subtilis pol IIIE [2] = target: T2, B. subtilis pol IIIE (Bacillus subtilis, UniProt O34623); test: DNA polymerase assay, B. subtilis pol IIIE; assay type: biochemical; conditions: for inhibition at 80 µg/mL: read-out: Percent Enzymatic Inhibition B. subtilis pol IIIE; for pIC50: B. subtilis Pol IIIE IC50, 4 dNTPs
# T2 construct: made in house
# Description: as §2
# B. subtilis pol IIIE [3] = target: T2, B. subtilis pol IIIE; test: DNA polymerase assay, B. subtilis pol IIIE; assay type: biochemical
# B. subtilis pol IIIC = target: T3, B. subtilis pol IIIC (Bacillus subtilis, UniProt P13267); test: DNA polymerase assay, B. subtilis pol IIIC; assay type: biochemical; conditions: for inhibition at 80 µg/mL: read-out: Percent Enzymatic Inhibition B. subtilis pol IIIC
# T3 construct: made in house
# Description: as §2, with “Each 25 μL assay contained 30 mM Tris, pH 7.5, 10 mM magnesium acetate, 4 mM dithiothreitol, 20% glycerol, with 10 μM dATP, dCTP, dGTP and dTTP (3H-labelled at 1.44 Ci/mmole) and 0.4 mg/mL activated calf thymus DNA as substrates.” left out, “The calculated IC50 is the concentration needed to inhibit 50% of the DNA polymerase activity in the presence of all four dNTP substrates.” left out
# [4] = system: Escherichia coli strain J53; test: Inhibition of bacterial growth (MIC), Ec; assay type: cell-based; conditions: 16 to 18 hours, 37° C.; for MIC: read-out: Minimum Inhibitory Concentration for Bacterial Growth, Ec
# Description: as §1
# [5] = system: Staphylococcus aureus strain IP 8; test: Inhibition of bacterial growth (MIC), Sa; assay type: cell-based; conditions: 37° C.; for MIC: IP8, 16 to 18 hours, read-out: Minimum Inhibitory Concentration for Bacterial Growth, Sa
# Description: as §1
# S. aureus Smith strain = test: Inhibition of bacterial growth (MIC), Sm; assay type: cell-based, Staphylococcus aureus; conditions: 16 to 18 hours, 37° C.; for MIC: Staphylococcus aureus, read-out: Minimum Inhibitory Concentration for Bacterial Growth, Sm
# Description: as §1
# [6] = system: methicillin-resistant S. aureus strain 1094; test: Inhibition of bacterial growth (MIC), MRSA; assay type: cell-based, Staphylococcus aureus; conditions: 16 to 18 hours, 37° C.; for MIC: Staphylococcus aureus, MRSA, read-out: Minimum Inhibitory Concentration for Bacterial Growth, MRSA
# Description: as §1
# [7] = system: vancomycin-resistant Enterococcus strain B42762; test: Inhibition of bacterial growth (MIC), VRE; assay type: cell-based; conditions: 16 to 18 hours, 37° C.; for MIC: VRE, read-out: Minimum Inhibitory Concentration for Bacterial Growth, VRE
# Description: as §1
# [8] = system: E. faecium clinical isolate; test: Inhibition of bacterial growth (MIC), Efcm; assay type: cell-based; conditions: 16 to 18 hours, 37° C.; for MIC: Enterococcus faecium, read-out: Minimum Inhibitory Concentration for Bacterial Growth, Efcm
# Description: as §1
# [9] = system: Bacillus subtilis strain BD54; test: Inhibition of bacterial growth (MIC), Bs; assay type: cell-based; conditions: 16 to 18 hours, 37° C.; for MIC: read-out: Minimum Inhibitory Concentration for Bacterial Growth, Bs
# Description: as §1
# test strains of bacteria = test: Inhibition of bacterial growth, whole panel of test strains; assay type: cell-based
# Description: as §1
# [10] = 80 μg/mL (190-260 μM) final concentration, all four dNTPs
# [11] = in the presence of all four dNTP substrates
# [12] = B. subtilis Pol IIIE IC50, −dATP, in the absence of dATP
# [13] = B. subtilis Pol IIIE IC50, −dCTP, in the absence of dCTP
# [14] = B. subtilis Pol IIIE IC50, −dGTP, in the absence of dGTP
# [15] = B. subtilis Pol IIIC IC50, −dATP, in the absence of dATP
# [16] = B. subtilis Pol IIIC IC50, −dCTP, in the absence of dCTP
# [17] = B. subtilis Pol IIIC IC50, −dGTP, in the absence of dGTP
# [18] = B. subtilis Pol IIIC IC50, 4 dNTPs, in the presence of all four dNTP substrates
# T3 sequence (P13267 whole entry): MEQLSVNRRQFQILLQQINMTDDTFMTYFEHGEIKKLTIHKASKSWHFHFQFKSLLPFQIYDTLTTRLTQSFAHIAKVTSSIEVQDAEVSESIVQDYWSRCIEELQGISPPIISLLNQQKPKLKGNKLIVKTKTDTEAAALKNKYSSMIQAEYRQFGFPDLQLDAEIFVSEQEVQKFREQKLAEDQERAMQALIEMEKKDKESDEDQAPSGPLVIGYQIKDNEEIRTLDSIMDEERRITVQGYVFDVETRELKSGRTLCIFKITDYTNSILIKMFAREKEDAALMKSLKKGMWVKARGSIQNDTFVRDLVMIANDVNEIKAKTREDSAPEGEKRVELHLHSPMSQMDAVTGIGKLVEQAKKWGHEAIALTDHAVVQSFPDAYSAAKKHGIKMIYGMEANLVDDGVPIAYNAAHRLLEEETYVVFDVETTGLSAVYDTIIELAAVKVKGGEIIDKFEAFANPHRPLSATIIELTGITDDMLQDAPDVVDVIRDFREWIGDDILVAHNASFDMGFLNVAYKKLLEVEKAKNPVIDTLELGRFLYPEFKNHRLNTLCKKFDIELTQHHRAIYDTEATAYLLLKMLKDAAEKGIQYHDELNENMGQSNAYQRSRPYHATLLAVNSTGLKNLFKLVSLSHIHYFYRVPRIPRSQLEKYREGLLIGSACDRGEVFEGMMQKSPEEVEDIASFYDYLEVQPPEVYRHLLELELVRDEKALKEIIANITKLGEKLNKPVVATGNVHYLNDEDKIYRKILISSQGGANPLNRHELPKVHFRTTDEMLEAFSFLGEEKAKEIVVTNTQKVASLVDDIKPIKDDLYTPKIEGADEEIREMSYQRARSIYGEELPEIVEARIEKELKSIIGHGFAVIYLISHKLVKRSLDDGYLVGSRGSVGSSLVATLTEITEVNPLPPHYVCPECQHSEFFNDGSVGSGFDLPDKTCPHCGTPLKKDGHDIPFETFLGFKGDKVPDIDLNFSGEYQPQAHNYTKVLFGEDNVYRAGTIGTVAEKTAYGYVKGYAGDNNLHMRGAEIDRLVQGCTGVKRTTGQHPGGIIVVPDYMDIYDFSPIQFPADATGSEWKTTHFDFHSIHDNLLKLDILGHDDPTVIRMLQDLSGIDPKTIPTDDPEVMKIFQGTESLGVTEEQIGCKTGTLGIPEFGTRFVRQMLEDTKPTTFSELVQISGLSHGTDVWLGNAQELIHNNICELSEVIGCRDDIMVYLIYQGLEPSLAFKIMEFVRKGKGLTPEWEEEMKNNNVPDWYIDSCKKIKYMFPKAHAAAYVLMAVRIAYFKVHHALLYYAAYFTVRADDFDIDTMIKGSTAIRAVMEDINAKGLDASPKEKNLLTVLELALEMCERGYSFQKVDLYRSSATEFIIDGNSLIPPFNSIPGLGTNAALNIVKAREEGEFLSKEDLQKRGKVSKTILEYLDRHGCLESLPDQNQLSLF
# T2 sequence (O34623 whole entry): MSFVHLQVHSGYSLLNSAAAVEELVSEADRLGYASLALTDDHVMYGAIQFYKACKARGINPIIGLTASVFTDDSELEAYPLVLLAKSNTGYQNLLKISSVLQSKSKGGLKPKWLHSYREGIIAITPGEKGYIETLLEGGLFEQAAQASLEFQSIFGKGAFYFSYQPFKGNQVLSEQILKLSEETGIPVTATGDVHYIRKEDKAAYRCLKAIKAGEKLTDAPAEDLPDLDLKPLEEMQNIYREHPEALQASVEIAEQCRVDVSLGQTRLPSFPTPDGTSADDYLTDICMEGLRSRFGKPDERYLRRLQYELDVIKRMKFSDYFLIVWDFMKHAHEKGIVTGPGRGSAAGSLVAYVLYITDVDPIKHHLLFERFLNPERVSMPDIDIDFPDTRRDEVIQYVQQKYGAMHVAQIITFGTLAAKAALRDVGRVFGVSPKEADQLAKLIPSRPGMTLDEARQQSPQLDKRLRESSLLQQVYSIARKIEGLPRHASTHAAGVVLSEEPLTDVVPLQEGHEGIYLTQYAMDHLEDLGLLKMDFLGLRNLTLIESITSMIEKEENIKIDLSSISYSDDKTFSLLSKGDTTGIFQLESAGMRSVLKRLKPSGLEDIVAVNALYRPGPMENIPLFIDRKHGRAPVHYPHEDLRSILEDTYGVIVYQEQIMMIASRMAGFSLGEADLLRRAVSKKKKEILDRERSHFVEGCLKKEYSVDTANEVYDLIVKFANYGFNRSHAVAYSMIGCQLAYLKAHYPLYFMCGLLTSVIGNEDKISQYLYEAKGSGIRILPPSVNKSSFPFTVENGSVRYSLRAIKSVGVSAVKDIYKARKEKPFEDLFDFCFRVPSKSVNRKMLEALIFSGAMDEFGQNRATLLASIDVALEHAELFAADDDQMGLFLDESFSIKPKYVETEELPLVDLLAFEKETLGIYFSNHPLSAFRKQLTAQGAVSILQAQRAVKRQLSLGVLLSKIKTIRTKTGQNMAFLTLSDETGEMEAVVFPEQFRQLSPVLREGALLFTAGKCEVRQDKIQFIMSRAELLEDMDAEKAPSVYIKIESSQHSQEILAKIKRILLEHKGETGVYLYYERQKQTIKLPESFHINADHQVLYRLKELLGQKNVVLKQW
# T1 sequence (P10443 whole entry): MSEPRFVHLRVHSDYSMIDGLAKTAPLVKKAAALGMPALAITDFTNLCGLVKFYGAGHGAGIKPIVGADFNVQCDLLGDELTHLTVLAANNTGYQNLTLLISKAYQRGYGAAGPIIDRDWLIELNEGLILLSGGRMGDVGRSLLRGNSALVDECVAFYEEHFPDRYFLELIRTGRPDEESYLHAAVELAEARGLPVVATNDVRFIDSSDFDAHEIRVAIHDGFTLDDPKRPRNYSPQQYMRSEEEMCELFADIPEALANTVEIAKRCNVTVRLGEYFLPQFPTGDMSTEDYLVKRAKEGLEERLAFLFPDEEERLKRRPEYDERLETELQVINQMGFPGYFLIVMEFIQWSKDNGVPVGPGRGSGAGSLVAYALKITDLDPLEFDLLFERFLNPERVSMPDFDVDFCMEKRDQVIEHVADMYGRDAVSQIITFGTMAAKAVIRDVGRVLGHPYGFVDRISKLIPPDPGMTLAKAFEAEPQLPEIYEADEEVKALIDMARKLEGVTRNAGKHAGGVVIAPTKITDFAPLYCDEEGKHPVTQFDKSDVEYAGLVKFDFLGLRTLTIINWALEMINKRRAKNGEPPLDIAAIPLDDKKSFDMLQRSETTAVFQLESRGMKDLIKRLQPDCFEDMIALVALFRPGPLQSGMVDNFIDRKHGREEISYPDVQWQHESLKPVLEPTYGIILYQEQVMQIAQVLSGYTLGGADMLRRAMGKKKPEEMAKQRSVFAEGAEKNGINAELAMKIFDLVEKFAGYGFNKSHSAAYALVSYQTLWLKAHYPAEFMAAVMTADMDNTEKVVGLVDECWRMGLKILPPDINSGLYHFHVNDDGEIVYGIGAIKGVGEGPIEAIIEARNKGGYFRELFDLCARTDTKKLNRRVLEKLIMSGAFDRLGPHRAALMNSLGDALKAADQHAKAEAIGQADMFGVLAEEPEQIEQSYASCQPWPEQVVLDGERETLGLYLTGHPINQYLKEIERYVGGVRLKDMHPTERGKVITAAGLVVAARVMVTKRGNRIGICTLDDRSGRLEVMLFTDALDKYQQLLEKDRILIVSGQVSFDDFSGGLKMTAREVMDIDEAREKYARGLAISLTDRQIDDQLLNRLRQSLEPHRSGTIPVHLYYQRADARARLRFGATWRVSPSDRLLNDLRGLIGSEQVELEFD
SMILES,MIC [1] [µg/mL],inhibition at 80 µg/mL (B. subtilis pol IIIE [2]; [10]) [%],pIC50 (B. subtilis pol IIIE [2]; [11]),pIC50 (B. subtilis pol IIIE [3]; [12]),pIC50 (B. subtilis pol IIIE [3]; [13]),pIC50 (B. subtilis pol IIIE [3]; [14]),inhibition at 80 µg/mL (B. subtilis pol IIIC; [10]) [%],pIC50 (B. subtilis pol IIIC; [15]),pIC50 (B. subtilis pol IIIC; [16]),pIC50 (B. subtilis pol IIIC; [17]),"B. subtilis Pol IIIC IC50, 4 dNTPs (B. subtilis pol IIIC; [11])",MIC [4] [µg/mL],MIC [5] [µg/mL],MIC (S. aureus Smith strain) [µg/mL],MIC [6] [µg/mL],MIC [7] [µg/mL],MIC [8] [µg/mL],MIC [9] [µg/mL],"Inhibition of bacterial growth, result in words (rank of MIC values) (test strains of bacteria)",Percent Enzymatic Inhibition E. coli pol IIIE (E. coli pol IIIE),other results
COc1cc(C=NNC(=O)c2cc(-c3ccccc3)n[nH]2)ccc1O [Compound 5],40,> 20,3.69,3.67,3.42,3.95,4.8,4.39,3.58,4.05,Inactive,> 80,20,40,40,40,80,60,,,inhibition at 80 µg/mL (E. coli pol IIIE; read-out: Percent Enzymatic Inhibition E. coli pol IIIE): 2%
CCOc1cccc(-c2cc(C(=O)NN=Cc3cccc(OC)c3O)[nH]n2)c1 [Compound 7],,,,,,,,,,,,,,,,,,,able to inhibit growth,not sufficient to show a significant inhibition; also recorded: Inactive,"Minimum Inhibitory Concentration for Bacterial Growth, Efcl [1]: >80 µg/mL; Percent Enzymatic Inhibition B. subtilis pol IIIE (B. subtilis pol IIIE [2]; [10]): not sufficient to show a significant inhibition; also recorded: Inactive; Percent Enzymatic Inhibition B. subtilis pol IIIC (B. subtilis pol IIIC; [10]): not sufficient to show a significant inhibition; also recorded: Inactive; Minimum Inhibitory Concentration for Bacterial Growth, Ec [4]: >80 µg/mL; Minimum Inhibitory Concentration for Bacterial Growth, Sa ([5]; 16 to 18 hours): 30 µg/mL; Minimum Inhibitory Concentration for Bacterial Growth, Sm (S. aureus Smith strain): 40 µg/mL; Minimum Inhibitory Concentration for Bacterial Growth, MRSA [6]: 30 µg/mL; Minimum Inhibitory Concentration for Bacterial Growth, VRE [7]: >80 µg/mL; Minimum Inhibitory Concentration for Bacterial Growth, Efcm [8]: >80 µg/mL; Minimum Inhibitory Concentration for Bacterial Growth, Bs [9]: 80 µg/mL"
COc1ccc(-c2cc(C(=O)NN=Cc3ccc(O)cc3)[nH]n2)cc1 [Compound 16],> 80,> 20,,3.93,3.81,3.50,9.9,4.05,4.02,4.22,Inactive,> 80,> 80,> 80,> 80,80,> 80,> 80,,Inactive,"B. subtilis Pol IIIE IC50, 4 dNTPs (B. subtilis pol IIIE [2]; [11]): Inactive"
COc1ccc(-c2cc(C(=O)NN=Cc3ccc(OC)c(OC)c3)[nH]n2)cc1 [Compound 18],40,> 20,3.56,3.46,< 3.00,< 3.00,> 20,4.64,5.19,5.26,,> 80,5,5,10,20,20,2.5,third place,,pIC50 (B. subtilis pol IIIC; [18]): 3.04
CCOc1ccc(-c2cc(C(=O)NN=Cc3ccc(O)c(OC)c3)[nH]n2)cc1 [Compound 19],> 80,10.1,< 3.08,< 3.08,< 3.08,< 3.08,> 20,5.05,5.48,5.29,,> 80,80,> 80,5,10,> 80,2.5,,Inactive,pIC50 (B. subtilis pol IIIC; [18]): 4.64
